Data reported in ChEMBL document CHEMBL3243925, “Disteroidyl ethers. 1. Synthesis and oral long-lasting uterotrophic activity of 1,3,5(10)-estratrien-17-yl enol ethers of 3-keto steroids” (1977).
Active and inactive are the calls of the source. No cut-off for these calls is given here.

Legend:
Rattus norvegicus [1] = assay: Uterotrophic activity in spayed Wistar rat assessed as autopsies by measuring uterus weight at 0.1 umol, po after 2 weeks (reference value: 15.9 +/- 0.50 mg); type: functional
Rattus norvegicus [2] = assay: Uterotrophic activity in spayed Wistar rat assessed as autopsies by measuring uterus weight at 0.1 umol, po after 1 week (reference value: 15.1 +/- 0.51 mg); type: functional

| Compound | Activity (Rattus norvegicus [1]) | Activity (Rattus norvegicus [2]) |
| --- | --- | --- |
| C#C[C@@]1(OC(C)=O)CC[C@H]2[C@@H]3CC=C4C=C(O[C@H]5CC[C@H]6[C@@H]7CCc8cc(OC(=O)c9ccccc9)ccc8[C@H]7CC[C@]56C)CC[C@@H]4[C@H]3CC[C@@]21C | inactive | inactive |
| C#C[C@]1(OC(C)=O)CC[C@H]2[C@@H]3CC=C4C=C(O[C@H]5CC[C@H]6[C@@H]7CCc8cc(OC(=O)CCCCCC)ccc8[C@H]7CC[C@]56C)CC[C@@H]4[C@H]3CC[C@@]21C | 18.9 mg | 29.5 mg |
| CCC(=O)O[C@H]1CC[C@H]2[C@@H]3CC=C4C=C(O[C@H]5CC[C@H]6[C@@H]7CCc8cc(OC(=O)c9ccccc9)ccc8[C@H]7CC[C@]56C)CC[C@]4(C)[C@H]3CC[C@]12C | 31 mg | 49.4 mg |
| C#C[C@]1(OC(=O)CCCCCC)CC[C@H]2[C@@H]3CC=C4C=C(O[C@H]5CC[C@H]6[C@@H]7CCc8cc(OC(C)=O)ccc8[C@H]7CC[C@]56C)CC[C@@H]4[C@H]3CC[C@@]21C | 28.7 mg | 31.7 mg |
| C#C[C@]1(OC(=O)CCCCCC)CC[C@H]2[C@@H]3CC=C4C=C(O[C@H]5CC[C@H]6[C@@H]7CCc8cc(OC)ccc8[C@H]7CC[C@]56C)CC[C@@H]4[C@H]3CC[C@@]21C | 15.4 mg | 18.2 mg |
| C[C@]12CC[C@@H]3c4ccc(OC5CCCC5)cc4CC[C@H]3[C@@H]1CC[C@@H]2OC1=CC2=CC[C@@H]3[C@H](CC[C@]4(C)[C@@H](O)CC[C@@H]34)[C@H]2CC1 | 27.1 mg | 35.8 mg |
| C[C@]12CC[C@@H]3c4ccc(OC5CCCC5)cc4CC[C@H]3[C@@H]1CC[C@@H]2OC1=CC2=CC[C@@H]3[C@H](CC[C@]4(C)C(=O)CC[C@@H]34)[C@H]2CC1 | 26.2 mg | 29.1 mg |
| C#C[C@]1(O)CC[C@H]2[C@@H]3CCc4cc(O)ccc4[C@H]3CC[C@@]21C [ETHINYL ESTRADIOL] | 20.5 mg | 22.5 mg |
| C#C[C@]1(OC(=O)C(C)OCC)CC[C@H]2[C@@H]3CC=C4C=C(O[C@H]5CC[C@H]6[C@@H]7CCc8cc(OC(C)OCC)ccc8[C@H]7CC[C@]56C)CC[C@@H]4[C@H]3CC[C@@]21C (stereo partly specified) | 18 mg | 23.6 mg |
| CC(=O)O[C@]1(C(C)=O)CC[C@H]2[C@@H]3CC(C)=C4C=C(O[C@H]5CC[C@H]6[C@@H]7CCc8cc(OC(=O)c9ccccc9)ccc8[C@H]7CC[C@]56C)CC[C@]4(C)[C@H]3CC[C@@]21C | 21.9 mg | 26.6 mg |
| CCC(=O)O[C@H]1CC[C@H]2[C@@H]3CC[C@@H]4CC(O[C@H]5CC[C@H]6[C@@H]7CCc8cc(OC(=O)c9ccccc9)ccc8[C@H]7CC[C@]56C)CC[C@]4(C)[C@H]3CC[C@]12C (stereo partly specified) | inactive | inactive |
| C#C[C@]1(OC(C)=O)CC[C@H]2[C@@H]3CC=C4C=C(O[C@H]5CC[C@H]6[C@@H]7CCc8cc(OC(C)=O)ccc8[C@H]7CC[C@]56C)CC[C@@H]4[C@H]3CC[C@@]21C | 25.4 mg | 36.6 mg |
| C[C@]12CC[C@@H]3c4ccc(O)cc4CC[C@H]3[C@@H]1CC[C@@H]2OC1=CC2=CC[C@@H]3[C@H](CC[C@]4(C)C(=O)CC[C@@H]34)[C@@]2(C)CC1 | 38.9 mg | 56.9 mg |
| CC(=O)O[C@H]1CC[C@H]2[C@@H]3CC=C4C=C(O[C@H]5CC[C@H]6[C@@H]7CCc8cc(OC(=O)c9ccccc9)ccc8[C@H]7CC[C@]56C)CC[C@@H]4[C@H]3CC[C@]12C | 31.6 mg | 48 mg |
| C[C@]12CC[C@@H]3c4ccc(O)cc4CC[C@H]3[C@@H]1CC[C@@H]2OC1=CC2=CC[C@@H]3[C@H](CC[C@]4(C)C(=O)CC[C@@H]34)[C@H]2CC1 | 43.6 mg | 71.7 mg |
| C#C[C@]1(OC(C)=O)CC[C@H]2[C@@H]3CC=C4C=C(O[C@H]5CC[C@H]6[C@@H]7CC(=O)c8cc(OC(=O)c9ccccc9)ccc8[C@H]7CC[C@]56C)CC[C@@H]4[C@H]3CC[C@@]21C | inactive | inactive |
| C#C[C@]1(OC(C)=O)CC[C@H]2[C@@H]3CC=C4C=C(O[C@H]5CC[C@H]6[C@@H]7CCc8cc(OC(C)OCC)ccc8[C@H]7CC[C@]56C)CC[C@@H]4[C@H]3CC[C@@]21C (stereo partly specified) | 19.3 mg | 30.3 mg |
| C[C@]12CCC(O[C@H]3CC[C@H]4[C@@H]5CCc6cc(O)ccc6[C@H]5CC[C@]34C)C[C@@H]1CC[C@@H]1[C@@H]2CC[C@]2(C)[C@@H](O)CC[C@@H]12 (stereo partly specified) | inactive | inactive |
| C[C@]12CC[C@@H]3c4ccc(O)cc4CC[C@H]3[C@@H]1CC[C@@H]2OC1=CC2=CC[C@@H]3[C@H](CC[C@@]4(C)[C@H]3CC[C@]4(C)O)[C@@]2(C)CC1 | 33.5 mg | 48.1 mg |
| C[C@]12CC[C@H]3[C@@H](CC=C4C=C(O[C@H]5CC[C@H]6[C@@H]7CCc8cc(OC9CCCC9)ccc8[C@H]7CC[C@]56C)CC[C@@H]43)[C@@H]1CC[C@@H]2OC(=O)CCC(=O)O | 31.8 mg | 28.9 mg |
| C#C[C@]1(OC(C)=O)CC[C@H]2[C@@H]3CC=C4C=C(O[C@H]5CC[C@H]6[C@@H]7CCc8ccccc8[C@H]7CC[C@]56C)CC[C@@H]4[C@H]3CC[C@@]21C | inactive | inactive |
| CC(=O)O[C@]1(C(C)=O)CC[C@H]2[C@@H]3CC=C4C=C(O[C@H]5CC[C@H]6[C@@H]7CCc8cc(OC(=O)c9ccccc9)ccc8[C@H]7CC[C@]56C)CC[C@]4(C)[C@H]3CC[C@@]21C | 23.3 mg | 27.5 mg |
| C[C@]12CC[C@@H]3c4ccc(OC(=O)c5ccccc5)cc4CC[C@H]3[C@@H]1CC[C@@H]2OC1=CC2=CC[C@@H]3[C@H](CC[C@]4(C)C(=O)CC[C@@H]34)[C@@]2(C)CC1 | 31.6 mg | 53 mg |
| CC(=O)[C@H]1CC[C@H]2[C@@H]3CC=C4C=C(O[C@H]5CC[C@H]6[C@@H]7CCc8cc(OC(=O)c9ccccc9)ccc8[C@H]7CC[C@]56C)CC[C@@H]4[C@H]3CC[C@]12C | 28.5 mg | 29.1 mg |
| C[C@]12CC[C@H]3[C@@H](CC=C4C=C(O[C@H]5CC[C@H]6[C@@H]7CCc8cc(OC(=O)c9ccccc9)ccc8[C@H]7CC[C@]56C)CC[C@@H]43)[C@@H]1CC[C@@H]2OC(=O)c1ccccc1 | 18.1 mg | 31.3 mg |
| C#C[C@]1(OC(C)=O)CC[C@H]2[C@@H]3CC=C4C=C(O[C@H]5CC[C@H]6[C@@H]7CCc8cc(OC9CCCC9)ccc8[C@H]7CC[C@]56C)CC[C@@H]4[C@H]3CC[C@@]21C |  | 17.9 mg |
